Measurements reported in patent US11400063B2, “Early administration of low-dose colchicine after myocardial infarction” (INSTITUT DE CARDIOLOGIE DE MONTREAL, priority 2019, dated 2022).

Legend:
Format in all cases: in vivo, human
patients with CAD = test: Meta-analysis of RCTs of colchicine for secondary cardiovascular prevention (pooled)
Description: Medline (PUBMED), EMBASE, and Cochrane central were searched to identify RCTs comparing colchicine to placebo or no colchicine for secondary cardiovascular prevention (inception to Sep. 1, 2020). To maximized sensitivity, citation chasing was performed in Google Scholar, Scopus, and Web of Science. Secondary prevention was defined as patients with clinically manifest or established CAD. Query terms included “colchicine”, “coronary artery disease”, “acute coronary syndrome”, “myocardial infarction”, “cardiovascular disease”, “atherosclerosis”, and “secondary prevention”, either separately or in combination.
RCTs that met the following criteria were included in the meta-analysis: 1) compared daily use of low-dose (0.5 mg) colchicine to placebo or no colchicine for secondary cardiovascular prevention; 2) the study reported at least one of the following outcomes: cardiovascular death, MI, stroke, cardiac arrest, or urgent coronary revascularization; 3) other than the trial medication, patients in both arms were treated in accordance to guideline directed medical therapy; 4) the minimum follow-up was at least 1 year; and 5) trials were published in a peer-reviewed scientific journal. Review articles, editorials, meta-analyses, observational studies, and published abstracts were excluded from the present meta-analysis.
Using standardized forms, data on study characteristics, patient characteristics, and outcomes were extracted on the intent-to-treat population independently by two reviewers from each eligible study. The Cochrane Collaboration risk-of-bias tool for randomized trials was used to evaluate study quality. The meta-analysis was conducted in accordance to the Preferred Reporting Items for Systematic Reviews and Meta-Analyses (PRISMA) guidelines.
The primary efficacy endpoint was a composite of cardiovascular death, MI, ischemic stroke, and urgent coronary revascularization. Secondary efficacy endpoints consisted of the components of the primary endpoint, composite of cardiovascular death, MI, and ischemic stroke, as well as deep vein thrombosis or pulmonary embolus, and atrial fibrillation (AF). To maximize consistency in pooling efficacy endpoints among trials, the primary and secondary composite efficacy and stroke endpoints in COLCOT were modified to meet the definition of primary and stroke endpoints of the LoDoCo2 trial. Therefore, adjudicated events of resuscitated cardiac arrest and non-ischemic stroke in COLCOT were excluded from the pooled primary endpoint. The component endpoint of stroke was also restricted to include only ischemic strokes. Incidence rates and hazards ratios (HRs) were calculated for the new primary composite endpoint and ischemic stroke endpoint using individual patient data from COLCOT.
Safety outcomes were limited to serious adverse events (SAEs) and included all-cause and non-cardiovascular mortality, hospitalization for gastrointestinal event, infection, and pneumonia, as well as diagnosis of cancer. Incidence of SAEs were recalculated for COLCOT using the intent-to-treat population.
The DerSimonian and Laird random-effects model was used to calculate the pooled HR and corresponding 95% confidence intervals (CI) for primary and secondary endpoints in the overall trial and in subgroup analyses of the primary endpoint. For safety outcomes, the DerSimonian and Laird random-effects model was used to compute risk ratios (RR) and corresponding 95% CIs. Heterogeneity was evaluated with the Higgins I^2 statistic. I^2 values of <25%, 25-75%, and >75% were considered to indicate low, moderate, and high degrees of heterogeneity, respectively. In subgroup analyses, the Qb statistic was calculated to determine inconsistency and variability in the treatment effect between strata. Publication and small study bias were assessed with the Egger's regression test and visually by asymmetry in funnel plots. […]

[1] = test system: high-sensitivity C-reactive protein level and white-cell count; test: COLCOT biomarkers of inflammation; settings: for Hs-C reactive protein, geometric mean: N = 99; for Total white blood cell count, geometric mean: N = 992
Source text: (§1) Additional prespecified exploratory end points included the change from baseline to 6 months in the high-sensitivity C-reactive protein level and the change from baseline to 12 months in the white-cell count. The C-reactive protein biomarker substudy was implemented after a protocol amendment and was optional for sites and for patients; 34 sites chose to participate in this substudy.
(§2) The analysis of the primary end point was repeated in the per-protocol population (i.e., patients without major protocol deviations). Secondary and exploratory end points expressed as time to event were analyzed similarly. The changes from baseline to follow-up were analyzed with the use of an analysis of covariance model with adjustment for baseline value, and estimates of treatment effect are presented with 95% confidence intervals.
(§3) High-sensitivity C-reactive protein was measured in a subgroup of only 207 patients at the time of randomization and 6 months later, and the median concentration at trial entry was 4.28 mg per liter. […] The adjusted geometric mean percent changes in the high-sensitivity C-reactive protein level at 6 months after myocardial infarction were −70.0% in the colchicine group and −66.6% in the placebo group, and the placebo-adjusted geometric mean percent change was −10.1% percentage points in the colchicine group (95% CI, −28.6 to 13.4) (Table 17).
(§4) In Table 17, the placebo-adjusted geometric mean percent change was obtained by exponentiating the adjusted mean difference between groups from the analysis of covariance model (based on log-transformed data), then subtracting 1 and multiplying by 100.
(§5) In addition, the C-reactive protein biomarker sub-study was implemented following a protocol amendment and was optional for sites and for patients; 34 sites accepted to participate in this substudy. There were 213 and 208 patients who provided blood samples at baseline and 6 months, respectively. Paired baseline and 6-month hs-CRP values were available in 207 patients. Clinically available white blood cell counts were obtained from 2598 patients at baseline and 1998 patients at 12 months, and paired baseline and 12-month values were available in 1972 patients. Statistical analysis was conducted on the patients who provided both baseline and follow-up data and as these were exploratory analyses, no missing data was imputed.

[2] = COLCOT biomarkers of inflammation; settings: baseline to 12 months
Source text: as §1, §2, §3, §4, §5

[3] = colchicine vs placebo or no colchicine
[4] = baseline to 12 months, listed as colchicine

COc1cc2c(c(OC)c1OC)-c1ccc(OC)c(=O)cc1[C@@H](NC(C)=O)CC2 [Colchicine, colchicine]
AF diagnoses and AF episodes, pooled HR (patients with CAD; [3]): 0.86
MIs, pooled HR (patients with CAD; [3]): 0.62
all-cause mortality, pooled RR (patients with CAD; [3]): 1.04
ischemic strokes, pooled HR (patients with CAD; [3]): 0.38
non-cardiovascular mortality, pooled RR (patients with CAD; [3]): 1.38
urgent coronary revascularization, pooled HR (patients with CAD; [3]): 0.58
primary composite endpoint (cardiovascular mortality, MI, ischemic stroke, urgent coronary revascularization), pooled HR (patients with CAD; colchicine vs placebo or no colchicine, random-effects model): 0.68
cardiovascular mortality, difference between arms (patients with CAD; pooled RCTs): no statistically significant difference
reduction in the incidence of major cardiovascular events (patients with CAD; pooled RCTs): 32%
risk reduction for MIs (patients with CAD; pooling HRs from the RCTs): 38%
risk reduction for ischemic strokes (patients with CAD; pooling HRs from the RCTs): 62%
risk reduction for urgent coronary revascularization (patients with CAD; pooling HRs from the RCTs): 44%
Hs-C reactive protein, geometric mean ([1]; 6 months): 1.37 mg/L
Circulating lymphocytes, geometric mean ([1]; 12 months): 1.83 10^3/μL
Circulating neutrophils, geometric mean ([1]; 12 months): 3.95 10^3/μL
Total white blood cell count, geometric mean ([1]; 12 months): 6.95 10^3/μL
Circulating lymphocytes, geometric mean ([1]; Randomization): 1.79 10^3/μL
Circulating neutrophils, geometric mean ([1]; Randomization): 5.45 10^3/μL
Hs-C reactive protein, geometric mean ([1]; Randomization): 4.27 mg/L
Total white blood cell count, geometric mean ([1]; Randomization): 8.54 10^3/μL
Hs-C reactive protein, Adjusted GM percent change ([1]; baseline to 6 months): −70.0%
Hs-C reactive protein, Placebo-adjusted GM percent change ([1]; baseline to 6 months): −10.1%
Circulating lymphocytes, Placebo-adjusted GM percent change ([1]; baseline to 12 months): 1.10%
Circulating neutrophils, Adjusted GM percent change ([1]; baseline to 12 months): −27.63%
Circulating neutrophils, Placebo-adjusted GM percent change ([1]; baseline to 12 months): 0.45%
Total white blood cell count, Adjusted GM percent change ([1]; baseline to 12 months): −18.81%
Total white blood cell count, Placebo-adjusted GM percent change ([1]; baseline to 12 months): 0.26%
Total white blood cell count, Adjusted GM percent change [1, 4]: −18.8%
Total white blood cell count, Placebo-adjusted GM percent change [1, 4]: 0.3%
reduction in the C-reactive protein level ([1]; over the first 6 months after myocardial infarction, both trial groups): > 65%
Circulating lymphocytes, Adjusted GM percent change [2]: 1.80%
